Read-outs that look alike come from different tables or passages of the source. Numbered stars: 1 amine (or outer) side, 2 acyl side, 3 side chain; on linkers, the order of the positions; unused ones are H or OH. Bridge positions count the residues as written; N and C are the ends. Square brackets hold non-standard residues; d marks the D form. Peptide text beside a SMILES is read from it. * marks the point of attachment. X7 = O=C(O)CN1CCN(CC(=O)O)CCN(CC(=O)NC2CCN(CC(=O)*)CC2)CCN(CC(=O)O)CC1; X12 = O=C(O)CN1CCOCCN(CC(=O)O)CCN(CC(=O)*)CCOCCN(CC(=O)O)CC1; DOTA = O=C(O)CN1CCN(CC(=O)O)CCN(CC(=O)*)CCN(CC(=O)O)CC1; Phe(4-Cl) = N[C@@H](Cc1ccc(Cl)cc1)C(=O)O; Arg(Me) = CNC(=N)NCCC[C@H](N)C(=O)O; X1 = O=C(CC1CCN([*:1])CC1)[*:2]; Lys(Me) = CNCCCC[C@H](N)C(=O)O; NMeK = CN[C@@H](CCCCN)C(=O)O; Tle = CC(C)(C)[C@H](N)C(=O)O; Nle = CCCC[C@H](N)C(=O)O; Aib = CC(C)(N)C(=O)O; Guanidino = N=C(N)N*
Assays:
[1] = biological target: T1, Fc-fusion protein of human PSMA (hPSMA-Fc) (Homo sapiens, UniProt Q04609); experiment: Surface plasmon resonance assay (Biacore T200, single cycle kinetic); assay type: binding; settings: read-out: pKD CAT (converted)
T1 construct: purchased Acro Biosystems PSA-H5264
Method: Surface plasmon resonance (SPR) studies were performed using a Biacore™ T200 SPR system. Briefly, polarized light is directed towards a gold-labeled sensor surface, and minimum intensity reflected light is detected. The angle of reflected light changes as molecules bind and dissociate.
Fc-fusion protein of human PSMA (hPSMA-Fc, Acro Biosystems, Cat #PSA-H5264) was captured on a Fc-capture chip (Biacore™ CM5 sensor chip coated with ˜300 RU of an Fc-binding peptide). hPSMA-Fc was diluted in Running Buffer (HBST, 0.1% DMSO) to a final concentration of 100 nM and then flushed over the Fc-capture chip to immobilized ˜1000 RUs.
Stock solutions of test compounds were prepared by dissolving each compound in DMSO. DMSO stock solution were diluted 1:1000 in Running Buffer without DMSO. Further sequential dilutions were made with Running Buffer containing 0.1% DMSO. SPR binding analyses were performed in Single Cycle Kinetic (SCK) mode at 25° C. Flow cell coated with the Fc-binding peptide only served as reference flowcell. After each SCK run, hPSMA-Fc was removed with 10 mM glycine buffer, pH 1.5.
In between every three SCK measurements, a blank run with Running Buffer instead of test compound was included to correct for baseline drifts (double blanking method).
Table 5 describes the protocol steps for Fc-fusion target capturing and assessment of the binding kinetics.
For each test compound, SPR raw data in the form of resonance units (RU) were plotted as sensorgrams using the Biacore™ T200 control software. The signal from the blank sensorgram was subtracted from that of the test compound sensorgram (blank corrected). The blank corrected sensorgram was corrected for baseline drift by subtracting the sensorgram of a SCK run without the test compound (running buffer only). The dissociation constant (KD) was calculated from Blank-normalized SPR data using the 1:1 Langmuir binding model from the Biacore™ Insight Evaluation software. The pKD value (negative decadic logarithm of dissociation constant) was calculated using Microsoft Excel.

[2] = biological target: T2, PSMA-expressing C4-2 cells (Homo sapiens, UniProt Q04609); experiment: FACS binding assay (competition with 50 nM PSM-0183); settings: C4-2 cells, read-out: pIC50 [C4-2] CAT (converted)
T2 construct: PSMA-expressing C4-2 cells (ATCC, Cat. No. CRL-3314) were cultured in RPMI-1640; host or cells: C4-2 cells
Method: In order to determine binding of compounds according to the present invention to PSMA-expressing cells, a FACS binding assay was established.
PSMA-expressing C4-2 cells (ATCC, Cat. No. CRL-3314) were cultured in RPMI-1640 (Pan Biotech, Cat. No. P04-18050) including 10% fetal calf serum (Biochrom) and 100 U/ml penicillin and 100 μg/mL streptomycin (Sigma, Cat. No. P0781). Cells were detached with Accutase (Biolegend, Cat. No. BLD-423201) and washed in FACS buffer (PBS (Sigma, Cat. No. D8537) including 1% fetal calf serum). Cells were diluted in FACS buffer to a final concentration of 500,000 cells per mL. 200 μL of the cell suspension were transferred to a u-shaped non-binding 96-well plate (Greiner Bio-One, Cat. No. 650901) and cells were washed in ice-cold FACS buffer.
For IC50 determination, C4-2 cells were incubated with 50 nM PSM-0183 (Ac-Thr-Aib-Phe[Cys-Lys-Arg-Aib-Asn-Cys]-Tle-Thr-Asp-Ttds-Ttds-AF488N3K-NH2) in the presence of increasing concentrations of test compounds at 4° C. for 1 hour. After two wash steps with ice-cold FACS buffer, cells were analyzed in an Attune NxT flow cytometer. Median fluorescence intensities (MFI) of the FITC/AF488-channel were calculated by Attune NxT software. MFI values were plotted against peptide concentration and four parameter logistic (4PL) curve fitting and IC50/pIC50 calculations were performed using ActivityBase software (IDBS).

[3] = pKD category for PSMA SPR activity assay, hPSMA-Fc, 25° C.

T2 sequence (Q04609 whole entry): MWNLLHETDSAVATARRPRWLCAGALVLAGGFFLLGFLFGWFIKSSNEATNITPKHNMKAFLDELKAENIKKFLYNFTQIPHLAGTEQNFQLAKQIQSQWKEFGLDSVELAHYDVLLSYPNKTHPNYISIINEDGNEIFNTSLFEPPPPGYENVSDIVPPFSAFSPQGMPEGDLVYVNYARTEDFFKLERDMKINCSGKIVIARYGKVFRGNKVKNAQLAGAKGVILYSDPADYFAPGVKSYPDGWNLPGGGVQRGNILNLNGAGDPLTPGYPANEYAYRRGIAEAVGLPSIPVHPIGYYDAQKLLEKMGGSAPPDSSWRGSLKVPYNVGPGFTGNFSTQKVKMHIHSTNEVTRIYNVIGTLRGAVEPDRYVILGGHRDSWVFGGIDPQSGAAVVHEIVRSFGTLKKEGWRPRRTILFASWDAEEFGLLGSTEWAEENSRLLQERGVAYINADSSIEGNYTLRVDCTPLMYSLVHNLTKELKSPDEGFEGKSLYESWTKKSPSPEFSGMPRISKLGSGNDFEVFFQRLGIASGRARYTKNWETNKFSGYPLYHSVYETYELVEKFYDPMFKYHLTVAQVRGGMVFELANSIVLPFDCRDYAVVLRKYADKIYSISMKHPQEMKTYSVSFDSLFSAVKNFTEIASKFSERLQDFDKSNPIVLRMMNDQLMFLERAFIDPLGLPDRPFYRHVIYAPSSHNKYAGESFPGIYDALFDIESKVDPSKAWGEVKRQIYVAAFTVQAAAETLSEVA
T1 sequence (Q04609 44-750 limits assumed): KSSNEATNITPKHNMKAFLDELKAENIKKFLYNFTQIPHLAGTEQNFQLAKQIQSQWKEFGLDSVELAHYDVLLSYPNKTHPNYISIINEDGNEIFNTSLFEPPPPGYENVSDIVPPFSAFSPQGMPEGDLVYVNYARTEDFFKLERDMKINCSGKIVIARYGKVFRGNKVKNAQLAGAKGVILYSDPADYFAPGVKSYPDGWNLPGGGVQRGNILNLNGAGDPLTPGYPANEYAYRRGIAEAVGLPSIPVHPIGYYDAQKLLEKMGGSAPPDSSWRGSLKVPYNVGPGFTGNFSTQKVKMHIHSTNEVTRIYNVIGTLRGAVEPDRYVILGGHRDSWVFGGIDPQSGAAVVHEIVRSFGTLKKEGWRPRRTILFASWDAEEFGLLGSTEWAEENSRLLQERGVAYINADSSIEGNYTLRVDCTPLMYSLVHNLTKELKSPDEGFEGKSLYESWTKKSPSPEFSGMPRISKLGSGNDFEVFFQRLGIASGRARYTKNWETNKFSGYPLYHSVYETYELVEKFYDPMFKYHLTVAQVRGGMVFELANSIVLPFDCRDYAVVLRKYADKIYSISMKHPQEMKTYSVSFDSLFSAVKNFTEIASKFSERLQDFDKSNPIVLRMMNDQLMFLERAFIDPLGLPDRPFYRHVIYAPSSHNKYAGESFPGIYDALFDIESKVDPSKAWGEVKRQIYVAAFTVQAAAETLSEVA

Compound | Kd [1, 3] | IC50 ([2]; pIC50 category of FACS binding) | Kd ([1]; PSMA SPR assay, category) | IC50 ([2]; FACS binding, category)
CCCC[C@H](NC(=O)[C@@H]1CSSC[C@H](NC(=O)[C@H](Cc2ccccc2)NC(=O)[C@H](C)NC(=O)[C@H](C)NC(C)=O)C(=O)N[C@@H](CCCCN)C(=O)N[C@@H](CCCNC(=N)N)C(=O)N[C@@H](C)C(=O)N[C@@H](CC(N)=O)C(=O)N1)C(=O)N[C@H](C(=O)N[C@@H](CC(=O)O)C(N)=O)[C@@H](C)O [PSM-0491, Ac-Ala-Ala-Phe-[Cys-Lys-Arg-Ala-Asn-Cys]-Nle-Thr-Asp-NH2] (Ac-AAFCKRANC[Nle]TD-NH2; disulfide 4-9) | 126 to 501 nM | 200 to 1260 nM |  | 
CCCC[C@H](NC(=O)[C@@H]1CSSC[C@H](NC(=O)[C@H](Cc2ccccc2)NC(=O)[C@H](C)NC(=O)[C@@H](NC(C)=O)[C@@H](C)O)C(=O)N[C@@H](CCCCN)C(=O)N2CCC[C@H]2C(=O)N[C@@H](C)C(=O)N[C@@H](CC(N)=O)C(=O)N1)C(=O)N[C@H](C(=O)N[C@@H](CC(=O)O)C(N)=O)[C@@H](C)O [PSM-0564, Ac-Thr-Als-Phe-[Cys-Lys-Pro-Ala-Asn-Cys]-Nle-Thr-Asp-NH2] (Ac-TAFCKPANC[Nle]TD-NH2; disulfide 4-9) |  |  | > 501 nM | > 3160 nM
CC(=O)N[C@H](C(=O)NC(C)(C)C(=O)N[C@@H](Cc1ccccc1)C(=O)N[C@H]1CSSC[C@@H](C(=O)N[C@H](C(=O)N[C@H](C(N)=O)[C@@H](C)O)C(C)(C)C)NC(=O)[C@H](CC(N)=O)NC(=O)[C@H](CCCCNC(=O)CN2CCC(NC(=O)CN3CCN(CC(=O)O)CCN(CC(=O)O)CCN(CC(=O)O)CC3)CC2)NC(=O)[C@H](CCCNC(=N)N)NC(=O)[C@H](CCCCN)NC1=O)[C@@H](C)O [PSM-0464, Ac-Thr-Aib-Phe-[Cys-Lys-Arg-Lys(DOTA-APAc)-Asn-Cys]-Tle-Thr-NH2] (Ac-T[Aib]FCKRK(X7)NC[Tle]T-NH2; disulfide 4-9) | < 12.6 nM | < 200 nM |  | 
C[C@@H](O)[C@H](NC(=O)[C@@H](NC(=O)[C@@H]1CSSC[C@H](NC(=O)[C@H](Cc2ccc(Cl)cc2)NC(=O)C(C)(C)NC(=O)CC2CCN(C(=O)CN3CCN(CC(=O)O)CCN(CC(=O)O)CCN(CC(=O)O)CC3)CC2)C(=O)N[C@@H](CCCCN)C(=O)N[C@@H](CCC(=O)NC(=N)N)C(=O)NC(C)(C)C(=O)N[C@@H](CC(N)=O)C(=O)N1)C(C)(C)C)C(N)=O [PSM-0489, DOTA-Cmp-Aib-Pcf-[Cys-Lys-Gin (Gu)-Aib-Asn-Cys]-Tle-Thr-NH2] ({DOTA}-[X1][Aib][Phe(4-Cl)]CKE(Guanidino)[Aib]NC[Tle]T-NH2; disulfide 4-9) | < 12.6 nM | < 200 nM |  | 
CNCCCC[C@@H]1NC(=O)[C@@H](NC(=O)[C@H](Cc2ccc(Cl)cc2)NC(=O)C(C)(C)NC(=O)[C@@H](NC(=O)CC2CCN(C(=O)CN3CCOCCN(CC(=O)O)CCN(CC(=O)O)CCOCCN(CC(=O)O)CC3)CC2)[C@@H](C)O)CSSC[C@@H](C(=O)N[C@H](C(=O)N[C@H](C(N)=O)[C@@H](C)O)C(C)(C)C)NC(=O)[C@H](CC(N)=O)NC(=O)C(C)(C)NC(=O)[C@H](CCCNC(=N)NC)NC1=O [PSM-0495, Crown-Cmp-Thr-Aib-Pcf-[Cys-Lys(Me)-Arg(Me)-Aib-Asn-Cys]-Tle-Thr-NH2] (X12-[X1]T[Aib][Phe(4-Cl)]C[Lys(Me)][Arg(Me)][Aib]NC[Tle]T-NH2; disulfide 5-10) | < 12.6 nM | < 200 nM |  | 
CC(=O)N[C@H](C(=O)NC(C)(C)C(=O)N[C@@H](Cc1ccccc1)C(=O)N[C@H]1CSSC[C@@H](C(=O)N[C@H](C(=O)N[C@H](C(N)=O)[C@@H](C)O)C(C)(C)C)NC(=O)[C@H](CC(N)=O)NC(=O)C(C)(C)NC(=O)[C@H](CCCNC(=N)N)NC(=O)[C@H](CCCCN)N(C)C1=O)[C@@H](C)O [PSM-0451, Ac-Thr-Aib-Phe-[Cys-Nmk-Arg-Aib-Asn-Cys]-Tle-Thr-NH2] (Ac-T[Aib]FC[NMeK]R[Aib]NC[Tle]T-NH2; disulfide 4-9) | 12.6 to 126 nM | 200 to 1260 nM |  | 

From patent US20260083865A1, “PROSTATE SPECIFIC MEMBRANE ANTIGEN (PSMA) LIGANDS AND USE THEREOF” (priority 2022, published 2026)
